Like-named read-outs stand apart in the source and are kept apart here. Where a SMILES comes first, the peptide text is derived from it.
Columns and labels:
Calu-3 cells = settings: read-out: IC50 Calu-3 (+); HER2-overexpressing lung cancer cells, 72 h
Protocol: (§3) Cellular assays were performed using BT-474, SKBR-3, Calu-3, MCF-7, and MCF-10A cells (ATCC). Antiproliferative activity was measured by CellTiter-Glo®, [49] a luminescence-based cell viability assay. In a 96-well plate, 1 × 10^4 cells/well were seeded and incubated overnight at 37°C and 5% CO2. Stock solutions of peptidomimetics were prepared by dissolving 1.5 mg/mL of compounds in DMSO. Stock solution of the compounds were diluted using the serum-free medium to prepare solutions of different concentrations of compounds. Compounds in the medium were added to the wells in triplicate and incubated for 72 h. As controls, cells treated with 1% sodium dodecyl sulfate and 1% dimethyl sulfoxide were used. At the end of the experiment, CellTiter-Glo® reagent was added, and luminescence was measured by a plate reader. A dose response curve was generated using luminescence vs concentration of compounds and IC50 values were obtained using Prism® (GraphPad Software, La Jolla, CA). Experiments were repeated at least three times to obtain standard deviation values.

HER3 = target: T1, HER3 (Homo sapiens, UniProt P21860); assay: Surface plasmon resonance analysis; assay type: binding; settings: data not shown
T1 construct: Extracellular domains of proteins HER2, EGFR, HER3, and HER4 purchased from Leinco Technologies; purchased Leinco Technologies (St. Louis, MO)
T1 sequence (P21860 20-643 limits assumed): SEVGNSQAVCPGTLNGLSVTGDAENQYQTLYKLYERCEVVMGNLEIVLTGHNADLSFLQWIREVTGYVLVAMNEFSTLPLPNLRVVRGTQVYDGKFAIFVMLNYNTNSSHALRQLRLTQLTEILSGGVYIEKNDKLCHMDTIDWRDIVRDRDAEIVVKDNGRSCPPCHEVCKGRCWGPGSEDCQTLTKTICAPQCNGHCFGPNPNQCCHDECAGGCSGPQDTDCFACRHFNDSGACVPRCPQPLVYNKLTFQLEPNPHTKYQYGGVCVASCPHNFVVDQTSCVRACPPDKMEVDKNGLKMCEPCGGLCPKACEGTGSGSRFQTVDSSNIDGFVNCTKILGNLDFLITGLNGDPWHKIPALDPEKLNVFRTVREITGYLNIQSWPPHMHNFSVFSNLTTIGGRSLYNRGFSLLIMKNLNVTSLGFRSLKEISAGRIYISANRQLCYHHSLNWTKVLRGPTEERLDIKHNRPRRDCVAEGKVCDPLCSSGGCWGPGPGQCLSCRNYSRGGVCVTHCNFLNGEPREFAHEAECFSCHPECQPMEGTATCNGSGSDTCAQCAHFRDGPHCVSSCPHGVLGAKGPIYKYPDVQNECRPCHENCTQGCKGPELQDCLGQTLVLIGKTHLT
Protocol: (§1) Surface plasmon resonance analysis was performed using GE X100. Extracellular domains of proteins HER2, EGFR, HER3, and HER4 purchased from Leinco Technologies (St. Louis, MO). […] Compound 18 and controls were used as analytes. Compound 18 at different concentrations (0 to 200 µM) was passed through an SPR chip, and binding kinetics were analyzed for each of the EGFR bindings. A blank subtracted sensorgram for compound 18 was represented.

[1] = target: T2, HER2 ECD (domains I to IV) (Homo sapiens, UniProt P04626); assay: Surface plasmon resonance analysis; assay type: binding
T2 construct: Extracellular domains of proteins HER2, EGFR, HER3, and HER4 purchased from Leinco Technologies; purchased Leinco Technologies (St. Louis, MO)
T2 sequence (P04626 23-652 limits assumed): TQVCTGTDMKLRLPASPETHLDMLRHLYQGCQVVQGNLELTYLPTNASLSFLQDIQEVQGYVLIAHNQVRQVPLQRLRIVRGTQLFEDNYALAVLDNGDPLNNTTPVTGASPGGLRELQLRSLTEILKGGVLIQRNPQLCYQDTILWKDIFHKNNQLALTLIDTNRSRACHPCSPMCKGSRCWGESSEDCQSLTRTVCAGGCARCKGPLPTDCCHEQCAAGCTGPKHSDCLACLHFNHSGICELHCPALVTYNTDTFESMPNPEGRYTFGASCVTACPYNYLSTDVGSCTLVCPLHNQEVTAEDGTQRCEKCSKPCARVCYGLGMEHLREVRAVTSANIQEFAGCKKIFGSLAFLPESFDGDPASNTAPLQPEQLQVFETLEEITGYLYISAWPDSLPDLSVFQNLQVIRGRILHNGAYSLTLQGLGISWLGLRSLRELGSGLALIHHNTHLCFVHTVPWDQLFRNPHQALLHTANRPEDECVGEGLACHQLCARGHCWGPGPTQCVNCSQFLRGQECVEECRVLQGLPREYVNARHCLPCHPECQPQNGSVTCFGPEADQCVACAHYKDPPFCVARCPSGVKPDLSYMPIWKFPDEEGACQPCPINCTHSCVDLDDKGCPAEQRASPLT
Protocol: as §1

domain IV of HER2 = domain IV of HER2 (Homo sapiens, UniProt P04626); assay: Surface plasmon resonance analysis; assay type: binding; settings: protein immobilized on CM5 chip
Chain of domain IV of HER2 (P04626 511-652 limits assumed): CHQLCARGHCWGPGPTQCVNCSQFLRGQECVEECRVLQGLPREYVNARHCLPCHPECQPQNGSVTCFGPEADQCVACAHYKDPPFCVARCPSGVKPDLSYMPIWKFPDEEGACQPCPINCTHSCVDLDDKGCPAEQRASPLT
Protocol: as §1

HER4 = target: T3, HER4 (Homo sapiens, UniProt Q15303); assay: Surface plasmon resonance analysis; assay type: binding; settings: data not shown
T3 construct: Extracellular domains of proteins HER2, EGFR, HER3, and HER4 purchased from Leinco Technologies; purchased Leinco Technologies (St. Louis, MO)
Protocol: as §1

EGFR = target: T4, EGFR (Homo sapiens, UniProt P00533); assay: Surface plasmon resonance analysis; assay type: binding; settings: data not shown
T4 construct: Extracellular domains of proteins HER2, EGFR, HER3, and HER4 purchased from Leinco Technologies; purchased Leinco Technologies (St. Louis, MO)
T4 sequence (P00533 25-645 limits assumed): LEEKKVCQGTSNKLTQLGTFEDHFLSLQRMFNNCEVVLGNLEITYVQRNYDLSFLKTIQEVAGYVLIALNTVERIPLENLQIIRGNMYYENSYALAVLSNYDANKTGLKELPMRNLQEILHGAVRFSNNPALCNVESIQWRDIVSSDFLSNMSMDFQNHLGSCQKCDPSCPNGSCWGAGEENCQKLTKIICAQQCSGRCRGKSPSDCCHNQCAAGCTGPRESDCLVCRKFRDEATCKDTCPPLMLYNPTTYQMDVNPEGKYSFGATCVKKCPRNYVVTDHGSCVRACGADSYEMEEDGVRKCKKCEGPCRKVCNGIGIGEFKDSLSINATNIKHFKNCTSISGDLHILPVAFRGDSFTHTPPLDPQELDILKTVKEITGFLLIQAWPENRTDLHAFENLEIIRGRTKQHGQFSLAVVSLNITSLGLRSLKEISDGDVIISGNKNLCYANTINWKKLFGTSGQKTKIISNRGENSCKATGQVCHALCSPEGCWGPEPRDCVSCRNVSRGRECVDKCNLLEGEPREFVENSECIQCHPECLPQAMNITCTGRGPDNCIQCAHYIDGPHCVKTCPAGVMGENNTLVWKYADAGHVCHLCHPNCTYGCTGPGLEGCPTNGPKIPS
Protocol: as §1

[2] = target: T5, HER2:HER3 dimerization in transfected U2OS cells (Homo sapiens, UniProt P04626); assay: Enzyme fragment complementation (PathHunter) assay; assay type: cell-based; settings: in the presence of 0.3 µM NRG1
T5 construct: host or cells: U2OS
T5 sequence (P04626 23-1255): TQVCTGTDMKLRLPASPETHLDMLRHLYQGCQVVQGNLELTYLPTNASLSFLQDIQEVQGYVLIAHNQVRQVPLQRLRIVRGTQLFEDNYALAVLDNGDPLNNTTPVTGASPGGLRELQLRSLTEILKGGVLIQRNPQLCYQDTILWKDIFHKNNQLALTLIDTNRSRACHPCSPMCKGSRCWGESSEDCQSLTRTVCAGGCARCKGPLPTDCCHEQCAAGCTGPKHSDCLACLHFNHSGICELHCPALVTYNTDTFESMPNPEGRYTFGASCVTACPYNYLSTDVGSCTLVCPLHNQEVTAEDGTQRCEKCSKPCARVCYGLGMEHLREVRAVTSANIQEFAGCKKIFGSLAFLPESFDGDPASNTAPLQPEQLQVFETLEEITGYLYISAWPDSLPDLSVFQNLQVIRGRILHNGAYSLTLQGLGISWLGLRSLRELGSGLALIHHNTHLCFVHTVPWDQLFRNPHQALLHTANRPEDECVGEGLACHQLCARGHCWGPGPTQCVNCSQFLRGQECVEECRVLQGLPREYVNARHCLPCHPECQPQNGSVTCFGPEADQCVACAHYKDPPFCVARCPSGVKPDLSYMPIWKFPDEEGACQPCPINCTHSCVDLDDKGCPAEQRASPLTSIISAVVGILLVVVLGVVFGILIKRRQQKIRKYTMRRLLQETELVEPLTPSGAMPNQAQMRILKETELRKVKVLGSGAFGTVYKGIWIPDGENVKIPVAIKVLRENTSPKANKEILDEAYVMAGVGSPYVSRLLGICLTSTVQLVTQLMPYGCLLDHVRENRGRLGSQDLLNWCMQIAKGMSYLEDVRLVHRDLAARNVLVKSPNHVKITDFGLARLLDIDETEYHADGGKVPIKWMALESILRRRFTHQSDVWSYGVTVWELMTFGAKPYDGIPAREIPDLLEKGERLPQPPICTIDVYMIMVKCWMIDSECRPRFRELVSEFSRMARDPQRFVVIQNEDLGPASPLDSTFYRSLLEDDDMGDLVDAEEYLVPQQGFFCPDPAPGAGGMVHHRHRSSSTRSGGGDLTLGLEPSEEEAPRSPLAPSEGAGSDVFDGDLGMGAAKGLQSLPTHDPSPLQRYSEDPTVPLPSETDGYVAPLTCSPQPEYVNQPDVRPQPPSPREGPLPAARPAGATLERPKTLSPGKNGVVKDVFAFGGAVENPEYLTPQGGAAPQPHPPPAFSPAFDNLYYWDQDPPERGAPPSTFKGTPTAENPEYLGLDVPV
Protocol: A Pathhunter assay kit was obtained from DiscoverX, and enzyme fragment complementation assay was carried out. U2OS cells transfected with HER3:HER2 were used for the assay. After cells were attached to the wells, they were incubated with compound 18 and controls at different concentration in the presence of neuregulin-1 (NRG-1) at 0.3 µM concentration. After 24 h of incubation, reagents were added, and luminescence was measured and compared with a control without any compound. A plot of luminescence versus concentration was obtained to measure the dimerization of HER3:HER2 and its inhibition by compound 18.

[3] = target: T6, HER2 protein on BT-474 cells (Homo sapiens, UniProt P04626); assay: Competitive binding assay with FITC-compound 5; settings: 0.1 to 50 µM with 50 µM FITC-compound 5, BT-474 cells
T6 construct: incubated with HER2 expressing BT-474 cells lines along with fixed amount of FITC-compound 5; host or cells: BT-474
T6 sequence (P04626 23-1255): as above
Protocol: BT-474 cell lines were coated on 96 well plates and after 24 hrs cells were washed. Varying amounts of compound 18 (0.1 to 50 µM) was incubated with HER2 expressing BT-474 cells lines along with fixed amount of FITC-compound 5 (50 µM). […] Readings were in triplicate. A graph of relative fluorescence with respect to concentration of compound 18 was plotted. As control fluorescence from FITC-compound 5 and cells without any treatment were used.

[4] = system: NCI-H1975 cells (EGFR L858R/T790M)
Protocol: Antiproliferative activity was measured by CellTiter-Glo®, [49] a luminescence-based cell viability assay. In a 96-well plate, 1 × 10^4 cells/well were seeded and incubated overnight at 37°C and 5% CO2. Stock solutions of peptidomimetics were prepared by dissolving 1.5 mg/mL of compounds in DMSO. Stock solution of the compounds were diluted using the serum-free medium to prepare solutions of different concentrations of compounds. […] As controls, cells treated with 1% sodium dodecyl sulfate and 1% dimethyl sulfoxide were used. At the end of the experiment, CellTiter-Glo® reagent was added, and luminescence was measured by a plate reader. A dose response curve was generated using luminescence vs concentration of compounds and IC50 values were obtained using Prism® (GraphPad Software, La Jolla, CA). Experiments were repeated at least three times to obtain standard deviation values.

SKOV-3 cells = settings: read-out: IC50 SKOV-3(+); HER2-overexpressing ovarian cancer cells, 72 h
Protocol: as §3

[5] = system: phosphorylated HER2 in Calu-3 cells; assay: Western blot of phosphorylated HER2; assay type: cell-based
Protocol: (§2) BT-474, Calu-3, and SKOV-3 cells were treated with compounds at 1 µM and lapatinib (positive control) at 0.07 µM. Cells without any treatment and cells treated with control compound were employed as negative controls in these studies. Cells were incubated for 36 h, washed and trypsinized. The cell lysate was prepared using cell lysis buffer containing protease inhibitor and phosphatase inhibitor. The protein concentration in each sample was determined using Bradford’s assay. 40 μg of protein from each sample was loaded on Novex® 4–20% tris-glycine gels and western blot analysis was carried out as described in our previous publication. Antibodies for the detection of total HER2 protein (t-HER2) and phosphorylated HER2 protein (p-HER2) were used at 1:3000 dilutions. After addition of the substrate and enhancer solutions from a Super Signal-enhanced chemiluminescence kit (Pierce, Rockford, IL) to the membrane, the images were captured using C-Digit Blot Scanner (LI-COR Biotechnology, Lincoln, NE). A representative Western blot image was used for the final presentation.

[6] = system: phosphorylated HER2 in BT-474 cells; assay: Western blot of phosphorylated HER2; assay type: cell-based; settings: 0.5 and 1 µM
Protocol: as §2

[7] = system: HER2 phosphorylation in tumor samples; assay: Western blot of xenograft tumor samples; assay type: in vivo, athymic nude mice; settings: treated tumors compared to control
Protocol: Western blot and PLA assay were carried out on tumor sections as described before. Immunoblot analysis was performed to evaluate the levels of total HER2 and phosphorylated HER2. Tumor sections were deparaffinized using xylene and rehydrated with decreasing concentrations of ethanol. Antigen retrieval on the microsections of the breast tumors was done in a steaming sodium citrate buffer (10 mM, 0.05% Tween-20, pH 6.0) for 5 min. The tumor sections were then used to analyze inhibition of HER2:HER3 dimerization using PLA.

Protocol for SKBR-3 cells: as §3

`N=C(N)NCCC[C@@H]1NC(=O)[C@H]2CCCN2C(=O)[C@@H]2CCCN2C(=O)[C@H](CCCNC(=N)N)NC(=O)C[C@H](c2cccc3ccccc23)NC(=O)[C@H](Cc2ccccc2)NC(=O)[C@H](CC(=O)O)NC(=O)[C@H](CC(=O)O)NC(=O)[C@H](Cc2ccccc2)NC(=O)C[C@H](c2cccc3ccccc23)NC1=O` [compound 18, Cyclo(1,10)P^1p^2R^3(R-Anapa)^4F^5D^6D^7F^8(R-Anapa)^9R^10] (HELM PEPTIDE1{P.[dP].R.[O=C(C[C@@H](N[*:1])c1cccc2ccccc12)[*:2]].F.D.D.F.[O=C(C[C@@H](N[*:1])c1cccc2ccccc12)[*:2]].R}$PEPTIDE1,PEPTIDE1,1:R1-10:R2$$$V2.0) was tested. Which IC50 (SKBR-3 cells; read-out: Antiproliferative activity (IC50 µM) SKBR-3 cells, Table 2, compound 18 and diastereoisomers) did it give?
Its IC50 is 0.194 ± 0.046 µM.

What about the IC50 (SKBR-3 cells; read-out: IC50 SKBR-3(+), HER2-overexpressing breast cancer cells, 72 h) of the same compound?
Its IC50 is 0.194 ± 0.046 µM.

And the IC50 (Calu-3 cells)?
Its IC50 is 18 ± 13 nM.

And the “SPR binding to HER3” value (HER3)?
The value was “did not indicate any significant change in response”.

What about the koff ([1]; SPR, 1:1 binding Langmuir fit) of the same compound?
Its koff is 5.97 s⁻¹.

What about the kon ([1]; SPR, 1:1 binding Langmuir fit) of the same compound?
The kon was 4.76e+07 M⁻¹ s⁻¹.

What about the Kd ([1]; calculated from kon and koff) of the same compound?
Its Kd is 125 nM.

And the “SPR binding to HER2 ECD” value ([1]; protein immobilized on CM5 chip, substance as analyte)?
Its value is “concentration-dependent binding”.

What about the “SPR binding to HER2 domain IV” value (domain IV of HER2) of the same compound?
Its value is “concentration-dependent binding”.

And the “SPR binding to HER4” value (HER4)?
Its value is “did not indicate any significant change in response”.

And the “SPR binding to EGFR” value (EGFR)?
Its value is “did not indicate any significant change in response”.

And the “Inhibition of HER2:HER3 dimerization (PathHunter)” value [2]?
The value was “dimerization of HER2:HER3 is inhibited in a concentration-dependent manner”.

And the “Competition with FITC-compound 5 (cell fluorescence)” value [3]?
The value was “decrease in the fluorescence intensity of cells”.

And the “Synergistic effect with erlotinib (isobologram)” value ([4]; NCI-H1975, compound 18 plus erlotinib)?
The value was “synergistic effect”.

And the IC50 ([4]; read-out: IC50 in NCI-H1975, EGFR L858R/T790M lung cancer cell line)?
The IC50 was 4.85 µM.

And the IC50 (SKOV-3 cells)?
The IC50 was 853 ± 102 nM.

And the “Phosphorylation of HER2 (Western blot)” value [5]?
The value was “decreases the phosphorylation of HER2 in a concentration-dependent manner”.

And the “Phosphorylation of HER2 (Western blot)” value [6]?
Its value is “decreases the phosphorylation of HER2 in a concentration-dependent manner”.

What about the “HER2 phosphorylation in tumor samples (Western blot)” value [7] of the same compound?
Its value is “decrease in HER2 phosphorylation”.

Reference: PMC5650337, “A peptidomimetic with a chiral switch is an inhibitor of epidermal growth factor receptor heterodimerization” (Oncotarget, 2017)
